The text below walks through data of patent US20130109643A1, “METABOLIC INHIBITOR AGAINST TUMORS HAVING AN IDH MUTATION” (The Johns Hopkins University, priority 2010, published 2013).

The subject of experiment [1] is D54 glioblastoma cells overexpressing WT or R132H IDH1. The experiment can be described thus: alamarBlue cell growth assay, D54 glioblastoma lines overexpressing WT or R132H IDH1. The class given is cell-based, human. As to the method:
(§1) Standard techniques were used to introduce the R132H mutation into human IDH1 engineered with a 6×-His-tag and produce lentivirus containing either WT or mutant IDH1. D54 cells or transformed normal human astrocytes (TNA) were transduced with virus, and lines were grown from individual cells using limiting dilution. IDH1 expression in response to […] doxycycline was confirmed using a 6×-His tag antibody (Millipore). Liquid chromatography/mass spectrometry was conducted as previously described. Dang L., et al., Cancer-associated IDH1 mutations produce 2-hydroxyglutarate. Nature 2009; 462:739-44. siRNA was used to knock down glutaminase, and cells were assessed for knockdown using Western blotting. Gao P., et al., c-Myc suppression of miR-23a/b enhances mitochondria/glutaminase expression and glutamine metabolism. Nature 2009; 458:762-5. Cell growth assays using alamarBlue were carried out as described following DMSO or bis-2-(5-phenylacetamido-1,2,4-thiadiazol-2-yl)ethyl sulfide (BPTES) treatment. Liolome W., et al., Glioblastoma cell growth is suppressed by disruption of Fibroblast Growth Factor pathway signaling. J Neurooncol 2009:94:359-66. […] [3H]-glutamate was isolated from the reaction mixture using anion exchange and measured using a scintillation counter. […] Data were evaluated using a two-tailed Student's t-test. P≦0.05 was considered significant.
D54 or TNA cells were transduced with virus containing WT or R132H IDH1. D54 cells were transduced using virus containing pLVCT-tTR-KRAB constructs, and TNA were transduced with virus containing Duet011 constructs. Lines were grown from individual cells using limiting dilution and tested for IDH1 expression. Expression was confirmed using Western blot and 6×-His-tag antibodies (Millipore). 0.04 μg/mL doxycycline was used to induce expression for D54 lines. Cells were maintained in DMEM, 10% FBS, 4.5 g/L glucose, and penicillin/streptomycin. Transformed normal human astrocytes (TNA) were a gift from Christopher M. Counter.
Cell growth assays using alamarBlue were carried out as described. Loilome W., et al., Glioblastoma cell growth is suppressed by disruption of Fibroblast Growth Factor pathway signaling. J Neurooncol 2009; 94(3):359-66. Cells were plated at a density of 500 cells/well in a 96-well black clear bottom plate (Becton Dickinson).
(In general: Alamar Blue is a resazurin reagent that responds to reducing activity.)

Experiment [2] relates to primary acute myelogenous leukemia (AML) cells with mutant or wild-type IDH1. The experiment can be described thus: Growth curves of primary AML cells (trypan blue counting). The format is cell-based, human. As to conditions: BPTES at 20 or 40 μM vs DMSO vehicle. As to the method:
Primary AML cells were cultured in RPMI-1640 media with 20% fetal bovine serum (FBS), 20% 5637 cell-conditioned media and 1% antibiotics as previously described (Miyauchi et al., 1987). Growth curves were generated by manual counting of viable cells as assessed by trypan blue exclusion on a hemocytometer. The detail of the procedure is as following: (1) The frozen cells are thawed and added into 10 mL of the media in a tissue culture flask and grown in a humidified incubator at 37° C. and 5% CO2 for 4-5 days. Cells were counted every 24-48 h to estimate the cells needed for the experiment. […] Then, 10-20 mL media containing each desired concentration of the drug were prepared. […] By doing this, the concentration of DMSO is constant and not more than 0.1%. BPTES is precipitated in PBS, so avoid dilution with PBS. […] When the cells were well homogenized, they were counted by 1:1 trypan blue exclusion with hemocytometer. […] The starting number for each cell line among control/DMSO/drug must be the same and is calculated based on the count from the cell-containing PBS solution. […] (6) Cells were counted every other day using a hemocytometer after staining with trypan blue (1:1). […] Cells were counted in the 4 outer squares of the hemocytometer, and the number was divided by 2 (=n). […] When cell concentration was low, more grids were counted and the cell concentrations were calculated accordingly.

Experiment [3] concerns D54 cells overexpressing WT or R132H IDH1. The experiment can be described thus: LC/MS metabolite levels in WT and mutant IDH1 D54 cells. The format is cell-based, human. As to conditions: 10 mmol/L BPTES, 48 hours. As to the method: as §1
3×10^5 (untreated) or 7.5×10^5 (BPTES-treated) cells were seeded in a T75 flask. 24 hrs post-plating, media on the cells was changed to 4.5 g/L glucose, 10% HyClone dialyzed FBS (ThermoScientific), penicillin/streptomycin, 4 mM glutamine and 0.04 μg/mL doxycycline to induce IDH1 expression. […] Metabolites were measured in one of two ways: using a reverse phase column with tributylamine as an ion pairing agent, Luo B., et al., Simultaneous determination of multiple intracellular metabolites in glycolysis, pentose phosphate pathway and tricarboxylic acid cycle by liquid chromatography-mass spectrometry. J Chromatogr 2007; 1147(2):153-64, coupled to a Thermo Exactive Mass Spectrometer operating at 100,000 resolving power using a mass range of ±5 ppm or single reaction monitoring on a Thermo TSQ Quantum Triple Quadrupole Mass Spectrometer coupled to an aminopropyl HPLC column. Bajad S. U., et al., Separation and quantitation of water soluble cellular metabolites by hydrophilic interaction chromatography-tandem mass spectrometry. J Chromatogr 2006; 1125(1):76-88. Signals were normalized to cell number prior to data analysis.

Experiment [4] deals with mutant IDH1 cells. The experiment can be described thus: Caspase 3/7 activation assay (Caspase-Glo 3/7). The class given is cell-based, human. As to conditions: 10 μM BPTES, 24 hrs, vs DMSO. The method, then: Cells were plated at a density of 5000 cells/well in a 96-well black clear bottom plate (Becton Dickinson). 24 hrs after plating, media was changed to fresh media with or without 0.04 μg/mL doxycycline.

Experiment [5] deals with mutant IDH1 cells. Description: Annexin V staining (flow cytometry). The format is cell-based, human. As to conditions: 10 μM BPTES, 24 hrs, vs DMSO. The method, then:
Cells were plated at a density of 2×10^5 cells/well in a 6-well plate. Media was changed to media with or without doxycyline 24 hrs after plating.
On the technique in general: In flow cytometry, cells or beads pass a laser one at a time.

Experiment [6] relates to transformed normal human astrocytes (TNA) overexpressing R132H or WT IDH1. The experiment can be described thus: alamarBlue cell growth assay, transformed normal human astrocytes (TNA) expressing WT or R132H IDH1. The class given is cell-based. As to conditions: 48 hours. As to the method:
as §1, with “significant. […]” for “significant.”

Molecules are shown by their SMILES.

Take `COC(=O)CCC(=O)C(=O)OC` [dimethyl-α-ketoglutarate]: in experiment [1] (1 mmol/L dimethyl-α-ketoglutarate, 50 or 100 mmol/L BPTES), the “rescue of BPTES growth inhibition at higher BPTES concentrations” value is “not blocked”. Besides, in experiment [1] (mutant IDH1 cells, 1 mmol/L dimethyl-α-ketoglutarate added to BPTES), the “rescue of BPTES growth inhibition” value is “significantly reduced growth inhibition”.

For `O=C(O[C@@H]1Cc2c(O)cc(O)cc2O[C@@H]1c1cc(O)c(O)c(O)c1)c1cc(O)c(O)c(O)c1` [EGCG, epigallocatechin gallate], the “sensitivity of growth, mutant vs WT IDH1 cells” value (from here on “sensitivity … vs WT IDH1 cells”) in experiment [1] (EGCG, 0.1 g/L glucose, 72 hrs) is reported as “more sensitive”.

On to `NOCC(=O)O` [AOA, amino-oxyacetic acid], for which the “sensitivity … vs WT IDH1 cells” value in experiment [1] (AOA, 1.5 g/L glucose, 48 hrs) was “more sensitive”.

Regarding `O=C(Cc1ccccc1)Nc1nnc(CCSCCc2nnc(NC(=O)Cc3ccccc3)s2)s1` [BPTES], in experiment [2], the “cell killing, mIDH1 vs wild-type AML cells” value was “selectively kills”. Moreover, in experiment [3], the “levels of glycolytic intermediates (fructose-1,6-bisphosphate, dihydroxy-acetone-phosphate, 3-phosphoglycerate)” value is listed as “increased”; the “tricarboxylic acid cycle intermediates (succinate and malate) and aspartate levels” value is given as “decreases”. The citrate levels result in experiment [3] (WT IDH1 cells) is “decreased”. Also, in experiment [3] (WT and mutant IDH1 cells), the glutamate levels result is reported as “diminished” and the α-KG levels result was “diminished”. Besides, the citrate levels entry in experiment [3] (mutant IDH1 cells) is recorded as “increased”. Further, the 2-HG levels entry in experiment [3] (treated mutant IDH1 cells) is recorded as “remained unchanged”. Also, in experiment [4], the “Caspase 3/7 induction” value is “does not increase”. The “Annexin V staining” value in experiment [5] is on record as “does not increase”. Besides, the “effect on growth, mutant vs WT IDH1 cells” value in experiment [1] (D54+R132H compared with D54 and D54+WT IDH1, 48 hours) is “preferentially slowed growth of mutant IDH1 cells”. Further, the growth reduction result in experiment [1] (mutant IDH1 D54 cells, 48 hours) is “about 20%”. The “sensitivity … vs WT IDH1 cells” value in experiment [6] is “mutant IDH1 cells also were more sensitive”.
